Data on 21 compounds can be found in patent US8822479B2, “6-cyclylmethyl-and 6-alkylmethyl-substituted pyrazolepyrimidines” (Boehringer Ingelheim International GmbH, priority 2003, dated 2014).

The structures appear in SMILES notation. Where a name gives a salt, the structure may show the parent alone.

Murine PDE9A, sequence (O70628 whole entry): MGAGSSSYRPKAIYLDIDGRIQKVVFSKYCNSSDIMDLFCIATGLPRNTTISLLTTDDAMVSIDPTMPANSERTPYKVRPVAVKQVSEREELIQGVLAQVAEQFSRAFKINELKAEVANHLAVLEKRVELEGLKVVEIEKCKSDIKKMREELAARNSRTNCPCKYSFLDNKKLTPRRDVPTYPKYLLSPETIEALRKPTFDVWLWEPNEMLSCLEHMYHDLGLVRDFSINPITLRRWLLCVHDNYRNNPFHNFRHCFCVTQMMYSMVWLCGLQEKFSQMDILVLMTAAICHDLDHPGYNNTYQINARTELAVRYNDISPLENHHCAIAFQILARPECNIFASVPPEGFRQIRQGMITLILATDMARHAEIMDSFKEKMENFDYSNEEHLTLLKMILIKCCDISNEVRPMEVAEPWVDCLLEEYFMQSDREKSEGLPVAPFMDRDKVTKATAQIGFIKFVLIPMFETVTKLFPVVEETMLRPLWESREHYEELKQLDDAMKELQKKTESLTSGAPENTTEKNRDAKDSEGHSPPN

One series has as its target Murine PDE9A (Mus musculus (Mouse), UniProt O70628). The following applies: concentrations below 200 μM; cited from earlier work.
For `CC(C)Cn1c(=O)n(C)c(=O)c2[nH]cnc21` [IBMX], the “inhibition of murine PDE9A” value was “not inhibited”.

The target of another series is human PDE9A (Homo sapiens (Human), UniProt O76083). The following applies: concentrations of up to 100 μM; cited from earlier work.
human PDE9A, sequence (O76083 whole entry): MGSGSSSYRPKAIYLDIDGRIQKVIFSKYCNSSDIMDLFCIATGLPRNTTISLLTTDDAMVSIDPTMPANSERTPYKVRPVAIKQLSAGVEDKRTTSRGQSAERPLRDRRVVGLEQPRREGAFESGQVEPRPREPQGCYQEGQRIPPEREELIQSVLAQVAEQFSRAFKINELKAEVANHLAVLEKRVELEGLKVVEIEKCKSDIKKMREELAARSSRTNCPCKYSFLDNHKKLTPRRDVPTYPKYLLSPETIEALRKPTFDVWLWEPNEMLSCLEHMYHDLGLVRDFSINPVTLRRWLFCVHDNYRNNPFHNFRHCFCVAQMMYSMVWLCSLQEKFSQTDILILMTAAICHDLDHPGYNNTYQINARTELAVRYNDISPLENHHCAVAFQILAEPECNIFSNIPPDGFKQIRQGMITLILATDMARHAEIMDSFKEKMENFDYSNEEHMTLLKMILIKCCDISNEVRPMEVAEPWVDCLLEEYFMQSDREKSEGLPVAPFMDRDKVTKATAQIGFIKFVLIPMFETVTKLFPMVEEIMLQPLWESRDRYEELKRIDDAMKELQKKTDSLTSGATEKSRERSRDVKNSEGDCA
On to `CC(=O)Nc1ccc(-c2c[nH]c(=O)cn2)cc1` [SKF94120], for which the “inhibition on the isolated enzyme” value is “no inhibition”.

For `CCOC(=O)C1=C[C@]2(CC)CCCN3CCc4c(n1c1ccccc41)[C@@H]32` [vinpocetine], the “inhibition on the isolated enzyme” value is given as “no inhibition”. As for `CC(C)Cn1c(=O)n(C)c(=O)c2[nH]cnc21` [IBMX], the “inhibition on the isolated enzyme” value is reported as “no inhibition”. Turning to `OCCN(CCO)c1nc(N2CCCCC2)c2nc(N(CCO)CCO)nc(N3CCCCC3)c2n1` [dipyridamole], the “inhibition on the isolated enzyme” value is recorded as “no inhibition”. Consider `COc1ccc(C2CNC(=O)C2)cc1OC1CCCC1` (stereo not shown) [rolipram], for which the “inhibition on the isolated enzyme” value is listed as “no inhibition”.

System in a further series: not given
Conditions: not given
As a reminder, the melting point is the temperature of the solid-liquid transition. In turn, `Cc1ccccc1-n1ncc2c(=O)[nH]c(CC3CCCC3)nc21` (as salt: sodium) gave a melting point of 181 °C.

`COc1ccccc1-n1ncc2c(=O)[nH]c(CC3C=CCC3)nc21` (stereo not shown) (as salt: sodium) [Example 18, 6-(2-Cyclopenten-1-ylmethyl)-1-(2-methoxyphenyl)-1,5-dihydro-4H-pyrazolo[3,4-d]pyrimidin-4-one] registered a melting point of 182 °C. The same measure, in the same setting: the value for `Cc1ccccc1-n1ncc2c(=O)[nH]c(CC3C=CCC3)nc21` (stereo not shown) (as salt: sodium) [Example 9, 6-(2-Cyclopenten-1-ylmethyl)-1-(2-methylphenyl)-1,5-dihydro-4H-pyrazolo[3,4-d]pyrimidin-4-one] was 179 °C; that for `Cc1ccncc1-n1ncc2c(=O)[nH]c(CC3CCCC3)nc21` (as salt: sodium) was 206 °C; that for `O=c1[nH]c(CC2C=CCC2)nc2c1cnn2-c1ccccc1Cl` (stereo not shown) (as salt: sodium) [Example 16, 6-(2-Cyclopenten-1-ylmethyl)-1-(2-chlorophenyl)-1,5-dihydro-4H-pyrazolo[3,4-d]pyrimidin-4-one] was 150 °C. The same measure, in the same setting: the same measure for `CCC(CC)Cc1nc2c(cnn2-c2cnccc2C)c(=O)[nH]1` (as salt: sodium) [Example 41, 6-(2-Ethylbutyl)-1-(4-methylpyridin-3-yl)-1,5-dihydro-4H-pyrazolo[3,4-d]pyrimidin-4-one]: 143 °C. Same read-out and setting: the value for `CCc1ccccc1-n1ncc2c(=O)[nH]c(CC3C=CCC3)nc21` (stereo not shown) (as salt: sodium) [Example 8, 6-(2-Cyclopenten-1-ylmethyl)-1-(2-ethylphenyl)-1,5-dihydro-4H-pyrazolo[3,4-d]pyrimidin-4-one] was 146 °C. `CCC(C)Cc1nc2c(cnn2-c2cnccc2C)c(=O)[nH]1` (racemic) (as salt: sodium) [Example 39, 6-(2-Methylbutyl)-1-(4-methylpyridin-3-yl)-1,5-dihydro-4H-pyrazolo[3,4-d]pyrimidin-4-one] had a melting point of 149 °C. Same read-out and setting: the same measure for `O=c1[nH]c(CC2C=CCC2)nc2c1cnn2-c1ccccc1F` (stereo not shown) (as salt: sodium) [Example 15, 6-(2-Cyclopenten-1-ylmethyl)-1-(2-fluorophenyl)-1,5-dihydro-4H-pyrazolo[3,4-d]pyrimidin-4-one]: 163 °C; for `O=c1[nH]c(CC2C=CCC2)nc2c1cnn2-c1ccccc1C(F)(F)F` (stereo not shown) (as salt: sodium) [Example 14, 6-(2-Cyclopenten-1-ylmethyl)-1-[2-(trifluoromethyl)phenyl]-1,5-dihydro-4H-pyrazolo[3,4-d]pyrimidin-4-one]: 153 °C. `CCC(C)Cc1nc2c(cnn2-c2ccccc2C)c(=O)[nH]1` (racemic) (as salt: sodium) [Example 35, 6-(2-Methylbutyl)-1-(2-methylphenyl)-1,5-dihydro-4H-pyrazolo[3,4-d]pyrimidin-4-one] showed a melting point of 132 °C. On the same count and under the same terms, the value for `Cc1ccccc1-n1ncc2c(=O)[nH]c(CC(C)C(F)(F)F)nc21` (racemic) (as salt: sodium) [Example 36, 1-(2-Methylphenyl)-6-(3,3,3-trifluoro-2-methylpropyl)-1,5-dihydro-4H-pyrazolo[3,4-d]pyrimidin-4-one] was 160 °C; that for `O=c1[nH]c(CC2C=CCC2)nc2c1cnn2-c1ccccn1` (stereo not shown) (as salt: sodium) [Example 17, 6-(2-Cyclopenten-1-ylmethyl)-1-(2-pyridinyl)-1,5-dihydro-4H-pyrazolo[3,4-d]pyrimidin-4-one] was 239 °C; that for `Cc1ccncc1-n1ncc2c(=O)[nH]c(CC3CCCCC3)nc21` (as salt: sodium) [Example 43, 6-Cyclohexylmethyl-1-(4-methylpyridin-3-yl)-1,5-dihydro-4H-pyrazolo[3,4-d]pyrimidin-4-one] was 206 °C. Still for that read-out and setting: the same measure for `CC(C)Cc1nc2c(cnn2-c2ccccc2Cl)c(=O)[nH]1` (as salt: sodium) [Example 40, 1-(2-Chlorophenyl)-6-(2-methylpropyl)-1,5-dihydro-4H-pyrazolo[3,4-d]pyrimidin-4-one]: 204 °C; for `Cc1ccccc1-n1ncc2c(=O)[nH]c(CC3CCCCC3)nc21` (as salt: sodium) [Example 10, 6-Cyclohexylmethyl-1-(2-methylphenyl)-1,5-dihydro-4H-pyrazolo[3,4-d]pyrimidin-4-one]: 169 °C.
